Measurements published in patent US8273575B2, “Methods for the diagnosis, risk assessment, and monitoring of autism spectrum disorders” (Phenomenome Discoveries Inc., priority 2007, dated 2012).

What was measured:
[1] = Plasma carnitine and O-acetylcarnitine levels in longitudinal samples of autistic subjects versus controls (FIG. 4); assay type: in vivo, human; details: all ASD subjects taking acetyl-carnitine
From the text: FIG. 4 is a graph illustrating levels of carnitine and O-acetylcarnitine in longitudinal samples collected over the course of one year from individual subjects diagnosed with autism versus controls. Values are control normalized and expressed as mean+/−SEM, n=3 for each child, n=30 for controls, *, p<0.05 vs. control;
(§1) Sample Collection. Three plasma samples were collected from 15 clinically diagnosed ASD subjects and 12 non-ASD controls over a 12 month period (six month interval between samplings). Four subjects were treated with carnitine (A09, A11, A13, A15). Table 1 outlines the clinical characteristics of the subjects studied. Social cognition scores were determined using methods known in the art.
(§2) Acetyl-carnitine is not approved nor has it been proven to be effective in ASD. To illustrate the utility of a method of monitoring ASD therapy as disclosed herein, the diagnostic ASD biomarkers described above were quantified in subjects taking acetyl-carnitine supplements. FIG. 4 illustrates the carnitine and acetyl carnitine levels in all of the subjects. […] All of the subjects taking acetyl-carnitine had elevated levels of both carnitine and acetyl-carnitine.

autism biomarkers = assay: Monitoring the biochemical efficacy of carnitine supplementation on autism biomarkers in plasma (FIG. 5); assay type: in vivo, human
From the text: FIG. 5 is a graph illustrating levels of key DHA and AA containing PlsEtn and VLCFA containing PtdEtn in longitudinal samples collected over the course of one year from autistic subjects taking carnitine supplements [n=12 (4×3)] vs. subjects not taking carnitine supplements [n=33 (11×3)] and vs. controls [n=30 (10×3)]. Values control-normalized and expressed as mean+/−SEM of the ratio to PtdEtn 16:0/18:0, *, p<0.05 vs. control, #, p<0.05 vs. autism, no carnitine; and
as §1
LC-MS/MS flow injection analyses. Analyses were performed using a linear ion trap mass spectrometer (4000 Q TRAP, Applied Biosystems) coupled with an Agilent 1100 LC system. Sample was prepared by adding 15 μL of internal standard (5 μg/mL of (24-^13C)-Cholic Acid (Cambridge Isotope Laboratories, Andover, Mass.) in methanol) to 120 μL ethyl acetate fraction of each sample. 100 μl of sample was injected by flow injection analysis (FIA), and monitored under negative APCI mode. The method was based on multiple reaction monitoring (MRM) of one parent/fragment transition for each metabolite and (24-^13C)-Cholic Acid. Each transition was scanned for 70 ms. 10% EtOAc in MeOH at a flow rate of 360 μl/min was used as the mobile phase. The source parameters were set as follows: CUR: 10.0, CAD: 8, NC: −4.0, TEM: 400, GS1: 30, GS2: 50, interface heater on. The compound parameters were set as follows: DP: −120.0, EP: −10, NC: −4.0, CE: −40, CXP: −15. A standard curve was generated for all analytes to verify instrument linearity by serial dilution of a healthy normal serum extract with constant concentration of (24-^13C)-Cholic Acid. All samples were analyzed in a randomized blinded manner and were bracketed by known serum standard dilutions. All standard curves had r^2 values >0.98.
as §2
Comparison of the plasma levels of the eight most descriptive metabolites between the carnitine+/−autistic subjects and controls, determined that the effect of carnitine on the autism biomarkers was striking (FIG. 5). […] However, the rate of elongation and desaturation of mono- and di-unsaturated fatty acid precursors appear to be unaffected and a compensatory elevation in AA appears to occur.

[2] = autistic subjects taking carnitine vs not taking and vs controls

Plasma levels in subjects taking acetyl-carnitine [1]: elevated
SMILES: C[N+](C)(C)CC(O)CC(=O)[O-] (centres unmarked) [carnitine]
Levels of AA-PtdEtn (20:4) in subjects taking carnitine (autism biomarkers): significantly elevated | Effect on DHA-PlsEtn (autism biomarkers; [2]): Complete normalization | Effect on DHA-PtdEtn (autism biomarkers; [2]): Complete normalization | Effect on saturated VLCFA (28:0) (autism biomarkers; [2]): Complete normalization | Effect on the DHA precursor (24:6) (autism biomarkers; [2]): Complete normalization | Effect on 26:3 PdtEtn (autism biomarkers; carnitine supplementation): no significant effect | Effect on 28:1 PdtEtn (autism biomarkers; carnitine supplementation): no significant effect
